{"source": "patent US20070141707A1", "about": "“Sponge toxins” (priority 2003, published 2007)", "key": {"[1]": {"details": "read-out: KD for zinc; cited from earlier work"}, "cultured DRG neurones [2]": {"system": "cultured DRG neurones", "experiment": "Whole-cell recording of membrane potential and input resistance in cultured DRG neurones", "assay_type": "cell-based, rat", "details": "1.5 mM zinc, before poly-APS, n=7", "procedure": "(§1) Primary cultures of dorsal root ganglion (DRG) neurones were prepared following enzymatic and mechanical dissociation of dorsal root ganglia from decapitated 2-day old Sprague Dawley rats. The sensory neurones were plated on laminin-polyornithine coated coverslips and bathed in F14 culture medium (Imperial Laboratories) supplemented with 10% horse serum (Gibco), penicillin (5000 IU/ml), streptomycin ([…]), NaHCO3 (14 mM) and nerve growth factor (20 ng/ml). The cultures were maintained for up to 2 weeks at 37° C. in humidified air with 5% CO2, and re-fed with fresh culture medium every 5-7 days.\n(§2) All experiments were conducted at room temperature (approximately 23° C.). The whole-cell recording technique was used to study the actions of poly-APS and halitoxin preparations on membrane potential, input resistance (evaluated from 100-300 ms electrotonic potentials evoked by −30 to −200 pA current commands) and holding current. […] Poly-APS and halitoxin were applied to the extracellular environment by low pressure ejection via a blunt micropipette (tip diameter about […]) positioned approximately […] from the neurone being recorded. […]\nThe electrophysiological data were stored on digital audio tape (DAT) using a DTR-1200 DAT recorder (Biologic) and subsequently analysed using Cambridge Electronic Design voltage clamp software (version 6). […]"}, "cultured DRG neurones [3]": {"system": "cultured DRG neurones", "experiment": "Voltage clamp recording of poly-APS evoked inward/holding current in DRG neurones", "assay_type": "cell-based, rat", "details": "1.5 mM zinc continually present, before poly-APS, n=6", "procedure": "as §1\nas §2, with “current. Whole cell recordings were made using an Axoclamp-2A switching voltage clamp amplifier operated at a sampling rate of 15-20 kHz.” for “current.”"}, "HEK293 cells": {"system": "HEK293 cells", "experiment": "fura-2 intracellular Ca2+ imaging in HEK293 cells", "assay_type": "cell-based, human", "details": "poly-APS 0.5 μg/ml, n=11", "procedure": "HEK293 cells (human embryonic kidney cell line) were maintained in Dulbecco's modified Eagle's medium (DMEM). In preparation for transfection experiments cells were seeded 24 hours prior to experimentation at a density of 5×10^5 cells per well in six well plates, the same seeding density was used for confocal and electrophysiology/calcium imaging experiments in 35 mm culture dishes.\nCultured DRG neurones and HEK 293 cells were incubated for 1 hour in NaCl-based extracellular solution containing 10 μM fura-2AM (Sigma, 1 mM stock in dimethylformamide). The cells were then washed for 20 minutes to remove the extracellular fura-2AM and to allow cytoplasmic de-esterification of the Ca^2+ sensitive fluorescent dye. The cells were constantly perfused (1-2 ml/min) and viewed under an inverted Olympus BX50W1 microscope with a KAI-1001 S/N 5B7890-4201 Olympus camera attached. The fluorescence ratiometric images from the data obtained at excitation wavelengths of 340 nm and 380 nm were viewed and analysed using OraCal pro, Merlin morphometry temporal mode (Life Sciences resources, version 1.20)."}}, "data": [{"compound": "Cc1ccc(N(CC(=O)O)CC(=O)O)c(OCCOc2cc3cc(-c4ncc(C(=O)O)o4)oc3cc2N(CC(=O)O)CC(=O)O)c1", "note": "[fura-2]", "values": [{"measurement": "Kd", "setting": "[1]", "value": "~2", "unit": "nM"}]}, {"compound": "[Zn+2]", "note": "[zinc]", "values": [{"measurement": "resting membrane potential in the presence of zinc", "setting": "cultured DRG neurones [2]", "value": "−47±7", "unit": "mV"}, {"measurement": "resting holding current at −90 mV with zinc", "setting": "cultured DRG neurones [3]", "value": "−120±30", "unit": "pA"}, {"measurement": "effect of zinc on rise in intracellular Ca2+ produced by poly-APS", "setting": "HEK293 cells", "value": "attenuated"}]}]}
